Results reported in PubChem BioAssay AID504860 (Southern Research Specialized Biocontainment Screening …, 2011).
Active and inactive are the calls of the source. No rule for the calls is given here.

What was measured:
[1] = confirmation, H37Rv, purified and synthesized compounds, set 4 (AID 504860); conditions: M. tuberculosis H37Rv growth inhibition, glycerol-free medium; at 100 µM (top of the series)
[2] = system: M. tuberculosis H37Rv growth inhibition, glycerol-free medium; experiment: as above; conditions: for IC50: measured here: growth inhibition IC50

Compound | inhibition [1] | IC90 [2] [µM] | IC50 [2] [µM]
COc1ccc(NC(=O)CSc2nc3ccccc3c(=O)[nH]2)cc1 | 11.4% (inactive) | – | –
Cc1[nH]c2ccccc2c1C(=O)COC(=O)c1ccc([N+](=O)[O-])s1 | – | 5.21 | 2.53
Cc1nc(SCC(=O)N(C)c2ccccc2)[nH]c(=O)c1C | 6.73% (inactive) | – | –
CCSc1nc(C)c(C)c(=O)[nH]1 | 2.48% (inactive) | – | –
CC1CCN(C(=O)C2CCN(c3nnc(-n4cccc4)s3)CC2)CC1 | – | 7.33 | 3.2
CC(C)NC(=O)CSc1nc2ccccc2c(=O)[nH]1 | – | 19.3 | 11.5
CCOC(=O)CSc1nc(C)c(C)c(=O)[nH]1 | 8.77% (inactive) | – | –
CCOc1ccc(-c2cc(C)[n+](CCc3ccc(OC)c(OC)c3)c(-c3ccc(OCC)cc3)c2)cc1 | – | 1.63 | 1.01
COC(=O)C(C)Oc1ccc(Cc2ncc(C(F)(F)F)cc2Cl)cc1 (configuration not stated) | – | 5.63 | 3.62
Cc1cccc(-c2oc3ccc(-c4ccc5c(c4)OCO5)cc3c2C#Cc2cncn2C)c1 | – | 3.08 | 2.5
O=C(CSc1nc2ccccc2c(=O)[nH]1)NCc1ccc(Cl)cc1 | – | 1.58 | 1.07
c1ccc(/N=C2\N=C(Nc3ccccn3)c3ccccc32)nc1 | – | 2.46 | 1.68
CC(C)CCNC(=O)CSc1nc2ccccc2c(=O)[nH]1 | – | 0.21 | < 0.01
Cc1nc(SCC(=O)NC2CCCC2)[nH]c(=O)c1C | – | 15.6 | 9.11
O=C(CSc1nc2ccccc2c(=O)[nH]1)NC1CCCC1 | – | 0.85 | 0.43
O=C(CSc1nc2ccccc2c(=O)[nH]1)NC1CCCCC1 | – | 0.52 | 0.31
Cc1ccc(NC(=O)COC(=O)CCc2c[nH]c3ccccc23)cc1[N+](=O)[O-] | – | 7.41 | 3.2
CCC(Sc1nc2c(c(=O)[nH]1)CCC2)C(=O)Nc1cccc(OC)c1 (configuration not stated) | -0.78% (inactive) | – | –
COc1cccc(NC(=O)CSc2nc3ccccc3c(=O)[nH]2)c1 | 4.59% (inactive) | – | –
O=C(CSc1nc2c(c(=O)[nH]1)CCC2)NC1CCCCC1 | – | < 0.01 | < 0.01
CCOC1OC(=O)C(Cl)=C1Nc1ccccc1C (configuration not stated) | – | 9.47 | 3.2
COC(=O)c1ccc(CNc2c(N3CCCC3)c(=O)c2=O)cc1 | 4.83% (inactive) | – | –
CN(C)C(=O)CSc1nc2ccccc2c(=O)[nH]1 | 9.4% (inactive) | – | –
CNC(=O)CSc1nc2ccccc2c(=O)[nH]1 | – | 99.1 | > 68.7
CC(C)CCNC(=O)CSc1nc2c(c(=O)[nH]1)CCC2 | – | 2.69 | 1.68
